Where two headings read alike, the source gives them in different places.
What was measured:
Male C57/B16 mice [1] = test system: Male C57/B16 mice
Excerpt: This system uses features derived from mouse behavioral data to classify compounds for their ability to treat neuro-psychiatric symptoms by comparing the features to a proprietary reference database of behavioral feature sets that are linked to classes of marketed drugs known to treat neuro-psychiatric symptoms. Thus the system can be used as a model to identify the psychiatric effect of a compound by comparing the effects of the compounds against drugs with known validated effects.
Once all features are extracted from the raw data through an automated pipeline, proprietary bioinformatics algorithms are used to decorrelate groups of features and find the combination of values that best separate different groups of interest.
SmartCube reference data used herein include anti-psychotics tested at several dose ranges. […] Anti-psychotics, when administered at higher doses, can engage additional receptor systems and thus affect mouse behavior differently.
Animals: Male C57/B16 mice (N=12 per group) from Taconic Laboratories were used. Upon receipt, mice were group-housed in OPTI mouse ventilated cages with 4 mice per cage. Mice were acclimated to the colony room for at least one week prior to test and subsequently tested at approximately 8-9 weeks of age. All animals were examined, handled, and weighed prior to initiation of the study to assure adequate health and suitability and to minimize non-specific stress associated with manipulation.
Treatment: 7 groups (N=12 per group)
All compounds tested were formulated in NP3 (vehicle solution): 5% Pharmasolve; 30% P3 (1:1:1 PEG200:PEG400:propylene glycol); 65% saline; pH is 5.1-6.
All SmartCube runs were conducted with NP3 as vehicle and under identical settings. […] Test compounds were injected intraperitoneally (IP) for 15 min before animals were placed in SmartCube for assessment.
The results for the class analyses are presented as standardized bar charts with percentages that sum to 100 for each dose. The percentage indicates the probability the classifier can differentiate between the vehicle group and test group. […]

Male C57/B16 mice [2] = settings: reference data from Psychogenics, cited from earlier work

| SMILES | SmartCube class signature (Male C57/B16 mice [1]; IP, 1, 2 and 5 mcg/kg) | SmartCube class signature (Male C57/B16 mice [1]; IP, 10, 20 and 50 mcg/kg (0.01, 0.02, 0.05 mg/kg), 15 min before test) | SmartCube class signature (Male C57/B16 mice [1]; IP, higher doses) | SmartCube class signature (Male C57/B16 mice [2]; higher doses) | SmartCube class signature (Male C57/B16 mice [2]; therapeutically effective doses) |
| --- | --- | --- | --- | --- | --- |
| Cc1cccc([C@H](C)c2cnc[nH]2)c1C [Dexmedetomidine, (+) 4-(S)-[1-(2,3-dimethylphenyl)ethyl]-1H-imidazole] | cannot distinguish the mouse behaviour from behaviour of mice on vehicle | antipsychotic signature | high dose of anti-psychotic |  |  |
| N=C(N)NC(=O)Cc1c(Cl)cccc1Cl [Guanfacine] |  |  |  | high dose anti-psychotic | unable to assign signature |
